Reference: US20080274121A1, “Inhibition of Angiogenesis by Mithramycin” (priority 2007, published 2008)

Legend:
H727 cells = assay: Viable cell count in vitro, H727; assay type: cell-based, human; settings: 0 to 100 μg/ml BVZ, 5 days
Description: FIG. 18. Effects of treatment with BVZ and MIT on the growth of and gene expression in human carcinoid cells in vitro. A. H727 and BON-1 cells were incubated for 5 days in a medium alone or a medium containing 25 to 100 μg/ml BVZ. The viable cells were counted. B. H727 cells were incubated for 5 days in a medium alone or a medium containing 100 μg/ml BVZ. Total protein lysates were harvested from the cell cultures, and the level of Sp1 and VEGF protein expression was determined using Western blot analysis. Equal protein-sample loading was monitored by probing the same membrane filter with an anti-GAPDH. C. H727 and BON-1 cells were treated with MIT at concentrations ranging from 0.1 to 2.5 μM for 24 hours. Cytotoxicity was assessed using the MTT assay.
Effects of treatment with BVZ and MIT on the growth of and gene expression in human LGNET cells. To further determine whether treatment with BVZ directly impacts gene expression in LGNET cells, we incubated H727 and BON-1 cells in a medium alone or a medium containing 0 to 100 μg/ml BVZ for 5 days.

[1] = tested on: Sp1, EGFR, and VEGF protein expression; assay: Western blot of gene expression in PANC-1 cells in vitro; assay type: cell-based, human; settings: 100 μg/ml BVZ, 6 to 48 hours
Description: FIG. 14. Effects of treatment with BVZ and MIT on the growth of and gene expression in human pancreatic cancer cells in vitro. (A) BxPC3 and (B) PANC-1 cells were incubated for 1 to 5 days in a medium alone or a medium containing 100 μg/ml BVZ. The viable cells were counted every 24 hours. C, PANC-1 cells were incubated for 6 to 48 hours in a medium alone or a medium containing 100 μg/ml BVZ. Total protein lysates were harvested from the cell cultures, and the level of Sp1, EGFR, and VEGF protein expression was determined using Western blot analysis. Equal protein-sample loading was monitored by probing the same membrane filter with an anti-glyceraldehyde-3-phosphate dehydrogenase antibody (GAPDH). […] (D) Cytotoxicity was assessed using the MTT assay, and (E) the level of gene expression was determined using Western blot analysis. NS, nonspecific.
Western blot analysis. Whole-cell lysates were prepared from human pancreatic cancer cell lines and tissues (23). […] Equal protein-sample loading was monitored by probing the same membrane filter with antibodies against anti-β-actin or glyceraldehyde-3-phosphate dehydrogenase (GAPDH) (23). The probe proteins were detected using the Amersham enhanced chemiluminescence system according to the manufacturer's instructions. […]

bevacizumab [BVZ] was tested, and the “cell growth in vitro” value (H727 cells) was “did not affect the growth” and the “expression of Sp1, VEGF and EGFR” value [1] was “did not affect the expression of Sp1 or its major downstream molecules”.
